The results in this text go back to patent US20220340566A1, “BENZYL AMINE-CONTAINING 5,6-HETEROAROMATIC COMPOUNDS USEFUL AGAINST MYCOBACTERIAL INFECTION” (priority 2019, published 2022).

The subject of data set [1] is Mycobacterium avium ATCC700898. The experiment in a line: Determination of IC85 against M. avium (resazurin fluorescence). The class given is cell-based. The following applies: Mycobacterium avium, ATCC700898, M. avium ATCC700898, CAMHB medium, 37° C., 3 days incubation then resazurin, fluorescence one day later; read-out: IC85. On the technique in general: Resazurin is reduced to fluorescent resorufin, in cell work by metabolically active cells.

Data set [2] in a line: Metabolic stability test in pooled human liver microsomes. The class given is in vitro ADME. To be noted: human liver microsomes 0.5 mg protein/mL, 1 mmol/L NADPH, 37° C., 30 minutes. A digest of the protocol: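 Remaining-rate readout: parent compound left after 30 min versus 0 min (set as 100%), measured by LC/MS/MS or SPE/MS. Oxidative reaction ran at 37° C. with 1 mmol/L NADPH, 0.5 mg protein/mL pooled human microsomes, 50 mmol/L Tris-HCl pH 7.4 buffer.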
For orientation: Liver microsomes are vesicles of endoplasmic reticulum, rich in cytochrome P450 enzymes.

Regarding `CCc1nc2ccc(Cl)cn2c1C(=O)NCc1ccc(C2CCN(c3ccc(OCC4CC4)cc3)CC2)c(F)c1.Cl` [Compound I-1-75], the IC85 in data set [1] came to 16 nM. The “MS_h_% (remaining amount of compound after reaction, 0 minute = 100%)” value in data set [2] was 71%.
The like results for `CCc1nc2ccc(Cl)cn2c1C(=O)NCc1ccc(C2CCN(c3ccc(OC(F)(F)F)cc3)CC2)cc1F` [Compound I-1-10] were, in that order, 3.1 nM and 60%.
As to `Cc1nc2ccc(Br)cn2c1C(=O)NCc1ccc(N2CCC(c3ccc(F)cc3)CC2)cc1` [Compound I-3-37], in data set [1], the IC85 turned out to be 16 nM. In data set [2], the “MS_h_% (remaining amount of compound after reaction, 0 minute = 100%)” value is 68%.
Taken in the same sequence, the figures for `Cc1nc2ccc(Cl)cn2c1C(=O)NCc1ccc(N2CCN(c3ccc(OC(F)(F)F)cc3)[C@@H](C)C2)c(Cl)c1.Cl` [Compound I-1-140] were 5.7 nM and 89%.
The like results for `CCc1nc2cc(F)ccn2c1C(=O)NCc1ccc(N2C[C@H](C)N(c3ccc(OC(F)(F)F)cc3)C[C@H]2C)c(F)c1.Cl` [Compound I-1-136] were, in that order, 16 nM and 86%.
For `Cc1nc2ccc(F)cn2c1C(=O)NCc1ccc(N2CCC(c3ccc(OC(F)(F)F)cc3)CC2)c(F)c1.Cl` [Compound I-1-64], the IC85 in data set [1] was 79 nM. In addition, the “MS_h_% (remaining amount of compound after reaction, 0 minute = 100%)” value in data set [2] amounted to 94%.
Taken in the same sequence, the figures for `CCc1nc2ccc(Cl)cn2c1C(=O)NCc1ccc(C2CCN(c3ccc(C(C)(C)C)cc3)CC2)cc1F.Cl` [Compound I-1-144] were 17 nM and 67%.
The like results for `Cc1ccn2c(C(=O)NCc3ccc(N4CCN(c5ccc(OC(F)(F)F)cc5)CC4)c(F)c3)c(C)nc2c1` [Compound I-2-12] were, in that order, 23 nM and 71.4%.
The like results for `Cc1ccn2c(C(=O)NCc3ccc(C4CCN(c5ccc(OCC(F)(F)F)cc5)CC4)c(F)c3)c(C)nc2c1` [Compound I-1-21] were, in that order, 38 nM and 89%.
Take `COc1ccn2nc(C)c(C(=O)NCc3ccc(N4CCN(c5ccc(OC(F)(F)F)cc5)[C@@H](C)C4)c(F)c3)c2c1.Cl` [Compound I-1-90]: the IC85 in data set [1] stood at 5.2 nM. For the same compound, the “MS_h_% (remaining amount of compound after reaction, 0 minute = 100%)” value in data set [2] is given as 91%.
Taken in the same sequence, the figures for `Cc1ccn2c(C(=O)NCc3ccc(C4CCN(c5ccc(OC(F)(F)F)cc5)CC4)c(F)c3)c(C)nc2c1` [Compound I-1-1] were 17 nM and 75%.
In the case of `CCc1nc2ccc(Cl)cn2c1C(=O)NCc1ccc(C2CCN(c3ccc(OCC4CC4)nc3)CC2)c(F)c1.Cl` [Compound I-1-76], the IC85 in data set [1] was found to be 46 nM. In addition, the “MS_h_% (remaining amount of compound after reaction, 0 minute = 100%)” value in data set [2] stood at 80%.
Taken in the same sequence, the figures for `Cc1nn2cc(F)ccc2c1C(=O)NCc1ccc(N2CCN(c3ccc(OC(F)(F)F)cc3)[C@@H](C)C2)c(F)c1.Cl` [Compound I-1-105] were 59 nM and 77%.
Taken in the same sequence, the figures for `CCc1nc2cc(F)ccn2c1C(=O)NCc1ccc(N2CC=C(c3ccc(OC(F)(F)F)cc3)CC2)c(F)c1.Cl` [Compound I-1-87] were 7.9 nM and 86%.
The like results for `Cc1ccn2c(C(=O)NCc3ccc(C4CCN(c5ccc(OC(C)C)cc5)CC4)c(F)c3)c(C)nc2c1` [Compound I-1-4] were, in that order, 100 nM and 88%.
In the case of `[2H]c1c(C([2H])([2H])[2H])c([2H])n2c(C(=O)NCc3ccc(S(F)(F)(F)(F)F)cc3)c(C)nc2c1[2H]` [Compound I-3-35], the IC85 in data set [1] was determined as 110 nM. Also, the “MS_h_% (remaining amount of compound after reaction, 0 minute = 100%)” value in data set [2] came out at 71.3%.
For `CCc1nc2ccc(Cl)cn2c1C(=O)NCc1cc(F)c(N2CCC(c3ccc(OC(F)(F)F)cc3)CC2)c(F)c1.Cl` [Compound I-1-66], in data set [1], the IC85 came out at 11 nM. The “MS_h_% (remaining amount of compound after reaction, 0 minute = 100%)” value in data set [2] is reported as 83%.
The like results for `CCc1nc2ccc(Cl)cn2c1C(=O)NCc1ccc(N2C[C@H](C)N(c3ccc(OCC(F)(F)F)nc3)C[C@H]2C)c(F)c1.Cl` [Compound I-1-134] were, in that order, 43 nM and 65%.
The like results for `CCc1nc2cc(F)ccn2c1C(=O)NCc1ccc(N2CCC(c3ccc(OC(F)(F)F)cc3)CC2)c(F)c1.Cl` [Compound I-1-68] were, in that order, 13 nM and 91%.
Take `CCc1nc2ccc(Cl)cn2c1C(=O)NCc1ccc(N2CCN(c3ccc(OCC(F)(F)F)nc3)[C@@H](C)C2)c(F)c1` [Compound I-1-45]: in data set [1], the IC85 was found to be 11 nM. Also, the “MS_h_% (remaining amount of compound after reaction, 0 minute = 100%)” value in data set [2] was found to be 64%.
The like results for `CCc1nc2ccc(Cl)cn2c1C(=O)NCc1ccc(-c2ccc(OC(C)C)cc2)c(F)c1` [Compound I-3-3] were, in that order, 9.4 nM and 96.1%.
The like results for `Cc1nc2ccc(F)cn2c1C(=O)NCc1ccc(C2CCN(c3ccc(OC(F)(F)F)cc3)CC2)c(F)c1` [Compound I-1-18] were, in that order, 11 nM and 85%.
Taken in the same sequence, the figures for `Cc1nc2ccc(Cl)cn2c1C(=O)NCc1ccc(N2CCC(c3ccc(OC(F)(F)F)cc3)CC2)c(F)c1.Cl` [Compound I-1-63] were 12 nM and 95%.
Turning to `COc1ccn2nc(C)c(C(=O)NCc3ccc(C4CCN(c5ccc(OC(F)(F)F)cc5)CC4)c(F)c3)c2c1.Cl` [Compound I-1-89], the IC85 in data set [1] was found to be 7.2 nM. Further, in data set [2], the “MS_h_% (remaining amount of compound after reaction, 0 minute = 100%)” value was determined as 65%.
Consider `CCc1nc2cc(Cl)ccn2c1C(=O)NCc1ccc(N2CCN(c3ccc(OC(F)(F)F)cc3)[C@@H](C)C2)c(F)c1` [Compound I-1-35], for which the IC85 in data set [1] was 26 nM. In addition, the “MS_h_% (remaining amount of compound after reaction, 0 minute = 100%)” value in data set [2] worked out at 91%.
Taken in the same sequence, the figures for `CCc1nc2cc(F)ccn2c1C(=O)NCc1cc(F)c(N2CCN(c3ccc(OC(F)(F)F)cc3)[C@@H](C)C2)cc1F.Cl` [Compound I-1-97] were 7.2 nM and 86%.
Taken in the same sequence, the figures for `Cc1ccn2c(C(=O)NCc3ccc(C4CCN(c5ccc(OC(C)C)cc5)CC4)cc3F)c(C)nc2c1` [Compound I-1-9] were 940 nM and 82%.
Regarding `COc1ccn2nc(C)c(C(=O)NCc3cc(F)c(N4CCN(c5ccc(OC(F)(F)F)cc5)[C@@H](C)C4)c(F)c3)c2c1.Cl` [Compound I-1-129], the IC85 in data set [1] is 6.8 nM. The “MS_h_% (remaining amount of compound after reaction, 0 minute = 100%)” value in data set [2] is reported as 80%.
The like results for `CCOc1ccc(N2CCC(c3ccc(CNC(=O)c4c(CC)nc5ccc(Cl)cn45)c(F)c3)CC2)cc1.Cl` [Compound I-1-143] were, in that order, 23 nM and 77%.
As for `Cc1ccn2c(C(=O)NCc3ccc(N4CCC(c5ccc(OC(F)(F)F)cc5)CC4)cc3F)c(C)nc2c1.Cl` [Compound I-1-81], in data set [1], the IC85 is 330 nM. The “MS_h_% (remaining amount of compound after reaction, 0 minute = 100%)” value in data set [2] turned out to be 94%.
